Measurements as given in patent publication US9072778B2, “Treatment regimen for N-MYC, c-MYC, and L-MYC amplified and overexpressed tumors” (UNIVERSITY OF HAWAII, priority 2005, dated 2015).

Legend:
[1] = system: NMB-7 cells; test: Polyamine pool analysis in inhibitor-treated NMB-7 cells; assay type: cell-based, human; settings: DFMO = 5 mM, SAM486A = 10 μM, Spd = 10 μM
Experimental: (§1) Combined inhibition of both enzymes decreased polyamine pools to various degrees, and exogenous supplementation of Spd (10 μM) to cell cultures led to a substantial increase in Spd. […] In untreated control cells, the levels of Put and Spd decreased during exponential cell growth and proliferation (day 0 to day 3), which is also consistent with a decrease in ODC and AdoMetDC enzyme activities (FIGS. 3d and 3e). Spm levels decreased in untreated LAN-1 cells and remained the same in NMB-7 cells (Table 1).
(§2) Human NB cell lines were provided by Dr. Robert Seeger (LAN-1; University of California, Los Angeles, Calif.), Dr. Nai-Kong Cheung (NMB-7; Memorial Sloan-Kettering Cancer Center, NY), and the American Type Culture Collection (SK-N-SH; ATCC, Manassas, Va.). Cells were maintained in RPMI 1640 (Biosource, Rockeville, Md.) containing 10% heat-inactivated fetal bovine serum (FBS) (Invitrogen, Carlsbad, Calif.), penicillin (100 IU/ml) and streptomycin (100 μg/ml). If cells were treated with exogenous Spd, 1 mM of aminoguanidine was included as an inhibitor of serum polyamine oxidation. […] For growth and proliferation inhibition, polyamine pool, and cell cycle studies, 10 μM Spd was added together with inhibitors, and cells were assayed on days 2 and/or 3.
(§3) Intracellular polyamines were extracted from cell pellets by a method known in the art. In brief, cells were washed and centrifuged. After sonication and centrifugation, 250 μl of supernatant, 100 μl of saturated sodium carbonate, and 300 μl of 25 mg/ml dansyl chloride (5-dimethylamino-naphthalene-1-sulfonyl chloride) (Fluka, Switzerland) were mixed and analyzed via reverse phase HPLC using a C18 reverse-phase analytical column (Waters, Milford, Mass.). The effluent from the column was monitored at 510 nm (excitation at 330 nm). Polyamine levels were determined using appropriate standards. The samples were normalized in 0.2 N sodium hydroxide and the amount of total protein per sample was measured using the Bradford assay (70). Polyamine levels are expressed as nmol per mg of total cellular protein.

[2] = system: LAN-1 cells; test: Polyamine pool analysis in inhibitor-treated LAN-1 cells; assay type: cell-based, human; settings: DFMO = 5 mM, SAM486A = 10 μM, Spd = 10 μM
Experimental: as §1, §2, §3

[3] = system: p27^Kip1; test: Western blot of p27Kip1 in inhibitor-treated NB cells; assay type: cell-based, human; settings: LAN-1 and NMB-7; 5 mM DFMO, 10 μM SAM486A; days 2 and 3, relative to untreated control
Experimental: To further investigate the mechanism that regulates G1 arrest in LAN-1 and NMB-7 cells, and to define the changes in associated protein responses, the cell cycle-related proteins p21^Waf1/Cip1, p27^Kip1, p53, Rb, and MYCN in NB cell lysates were studied. Cells were analyzed on days 1, 2, and 3. Equal amounts of total protein were loaded in all experiments. Proteins were scanned and the ratio of hypophosphorylated Rb (pRb) (lower band):hyperphosphorylated Rb (ppRb) (upper band) was calculated (b). MYCN bands were quantified and normalized relative to β-actin. Values are presented as percentage (%) of controls of day 1, 2 or 3. (c). The data are representative of at least three independent experiments. […] To test for the presence of the cdk inhibitor protein p21^Waf1/Cip1, identical experiments were conducted, but the protein could not be detected (not shown). Low levels of p21^Waf1/Cip1 in NB cells have been previously described (McKenzie et al., (2003). Cancer Res, 63, 3840-4, which is incorporated herein by reference in its entirety). Similarly, the tumor suppressor protein p53 was not detected (not shown), which is in agreement with previous findings that cell lines LAN-1 and NMB-7 are p53 deficient. In contrast, p53 was readily expressed in identical Western blot control experiments and detected by immunofluorescence using the p53 wild type cell line SK-N-SH (not shown).

[4] = molecular target: T1, ODC (Homo sapiens, UniProt P11926); test: ODC enzyme activity in lysates of inhibitor-treated NB cells; assay type: cell-based; settings: DFMO = 5 mM, SAM486A = 10 μM, mean ± SD
T1 construct: enzyme activities were measured in cell lysates; endogenous in cells
T1 sequence (P11926 1-461): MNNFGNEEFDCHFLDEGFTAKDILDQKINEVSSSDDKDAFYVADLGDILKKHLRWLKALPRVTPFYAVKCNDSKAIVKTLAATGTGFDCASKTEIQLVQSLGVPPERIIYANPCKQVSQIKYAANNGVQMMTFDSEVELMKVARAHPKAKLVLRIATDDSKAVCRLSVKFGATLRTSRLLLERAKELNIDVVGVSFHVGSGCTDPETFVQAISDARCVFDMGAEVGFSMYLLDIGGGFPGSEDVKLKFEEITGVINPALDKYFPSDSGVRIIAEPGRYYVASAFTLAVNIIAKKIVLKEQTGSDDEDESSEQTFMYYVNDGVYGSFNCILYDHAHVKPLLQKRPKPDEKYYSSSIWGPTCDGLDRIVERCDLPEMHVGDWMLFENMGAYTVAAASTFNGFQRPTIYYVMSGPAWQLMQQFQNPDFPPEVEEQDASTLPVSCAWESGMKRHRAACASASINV
Experimental: as §2
ODC and AdoMetDC enzyme activities were determined using a standard assay known in the art. In brief, NB cells were washed twice with ice-cold PBS and harvested in 50 mM sodium phosphate buffer (pH 7.2), 0.1 mM EDTA, 2.5 mM DTT, supplemented with 1× protease inhibitor cocktail (Roche Molecular Biochemicals, Indianapolis, Ind.). For the measurement of AdoMetDC activity, cells were harvested in the above buffer supplemented with 2.5 mM Put. Cells were lysed by three freeze/thaw cycles and cell lysates were prepared by centrifugation for 20 minutes at 14,000 rpm and 4° C. ODC activity was measured in a reaction mixture that contained 20 μM L-[1-^14C]ornithine (47.70 mCi/mmol; NEN Life Science Products, Boston, Mass.). AdoMetDC activity was assayed in a reaction mixture that contained 8.2 μM S-adenosyl-L-[carboxy-^14C]methionine (58.0-61.0 mCi/mmol; Amersham Biosciences, Piscataway, N.J.) and 140.1 μM cold S-adenosylmethionine. […] Untreated or SAM486A-treated LAN-1 extracts were assayed for AdoMetDC activity after multiple rounds of sequential dilution with harvest buffer followed by concentration of the extract (Centricon YM-10, Millipore Corporation, Bedford, Mass.) to remove the inhibitor.

| Specific enzyme activity ODC ([4]; LAN-1, 2 days after treatment) [% OF CONTROL] | Specific enzyme activity ODC ([4]; NMB-7, 2 days after treatment) [% OF CONTROL] | Compound | Polyamine pools PUT ([1]; NMB-7, Day 2) [NMOL/MG TOTAL PROTEIN] | Polyamine pools SPD ([1]; NMB-7, Day 2) [NMOL/MG TOTAL PROTEIN] | Polyamine pools SPM ([1]; NMB-7, Day 2) [NMOL/MG TOTAL PROTEIN] | Polyamine pools PUT ([1]; NMB-7, Day 3) [NMOL/MG TOTAL PROTEIN] | Polyamine pools SPD ([1]; NMB-7, Day 3) [NMOL/MG TOTAL PROTEIN] | Polyamine pools SPM ([1]; NMB-7, Day 3) [NMOL/MG TOTAL PROTEIN] | Polyamine pools PUT ([2]; LAN-1, Day 2) [NMOL/MG TOTAL PROTEIN] | Polyamine pools SPD ([2]; LAN-1, Day 2) [NMOL/MG TOTAL PROTEIN] | Polyamine pools SPM ([2]; LAN-1, Day 2) [NMOL/MG TOTAL PROTEIN] | Polyamine pools PUT ([2]; LAN-1, Day 3) [NMOL/MG TOTAL PROTEIN] | Polyamine pools SPD ([2]; LAN-1, Day 3) [NMOL/MG TOTAL PROTEIN] | Polyamine pools SPM ([2]; LAN-1, Day 3) [NMOL/MG TOTAL PROTEIN] | p27^Kip1 protein levels [3] |
| --- | --- | --- | --- | --- | --- | --- | --- | --- | --- | --- | --- | --- | --- | --- | --- |
| 240 ± 27 | 251 ± 42 | N=C(N)c1cccc2c1CC/C2=N\N=C(N)N [SAM486A, 4-amidinoindan-1-one 2′-amidinohydrazone] | 69.6 | 5.6 | 3.9 | 259.5 | 5.5 | 3.6 | 48.5 | 5.5 | 4.2 | 43.7 | 5.0 | 3.5 | did not alter p27^Kip1 levels |
| 26 ± 2 | 25 ± 8 | NCCC[C@](N)(C(=O)O)C(F)F [DFMO, α-difluoromethylornithine] | 0.1 | 1.9 | 9.3 | 0.0 | 1.4 | 8.6 | 0.3 | 2.2 | 8.7 | 0.0 | 1.9 | 8.1 | increased endogenous levels of cdk inhibitor protein p27^Kip1 |
